# Source: patent publication US20180021277A1, “ANTI-VIRULENCE COMPOSITIONS AND METHODS” (priority 2012, published 2018)
# Residue numbers refer to the chain shown, from its start. pKd: −log10 of the molar value. Where “and” joins values, the source holds several entries; their conditions need not be identical. Equal values may be shown once. Entries after “also recorded” stand apart in the source; their conditions may differ.
# Assays:
# [1] = system: MRSA strain lacking the agr operon (Lac Δagr); assay: Biofilm formation in MRSA strain lacking the agr operon; type: cell-based, Staphylococcus aureus; conditions: data not shown
# [2] = target: T1, C-terminal DNA-binding domain (AgrA_C) of the Staphylococcus aureus response regulator AgrA (Staphylococcus aureus, UniProt P0A0I7); assay: Microscale thermophoresis binding to AgrA_C; conditions: listed as F19, read-out: Kd / affinity to AgrA_C
# T1 sequence (P0A0I7 143-238): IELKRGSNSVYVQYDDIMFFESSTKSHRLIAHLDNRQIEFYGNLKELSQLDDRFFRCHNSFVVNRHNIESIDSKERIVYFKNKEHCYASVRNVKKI
# Method: The AgrA C proteins from S. aureus and S. epidermidis were fluorescently labeled with Alexa Fluor 647 NHS ester and purified on Zeba spin columns. Compound F19 was diluted as a gradient through the capillaries while protein concentrations were maintained constant. Measurements were performed on a Nanotemper Monolith NT.115 apparatus. Lysozyme and known inhibitor N,N′,N″-triacetylchitotriose (Fisher Scientific) were used as controls.
# MRSA USA300 [3] = assay: Emergence of resistance in vitro: daily passaging with hemolysis read-out; type: cell-based, Staphylococcus aureus; conditions: 50 μg/mL, 16 daily passages; listed as F19
# MRSA USA300 [4] = assay: Biofilm measurement (crystal violet), MRSA; type: cell-based, Staphylococcus aureus; conditions: control = 100
# Method: Bacterial cells were grown in Luria Broth overnight and an OD600 of 0.5 corresponding to 10^6 cfu/mL. 200 μL of this bacterial culture was plated with the presence of compound at various concentrations. Biofilm was allowed to form by placing the plate at 37° C. in the incubator without shaking. The plate was then washed 2× with water while being careful not to disturb the biofilm. Water was aspirated out and the plate was baked dry in a 60° C. incubator for 2 h. 125 μL of a 0.06% crystal violet solution ([…] in H2O) was added to each well and allowed to sit at room temperature for 15 minutes. […] The plate was inverted on a paper towel to dry overnight.125 μL of 30% acetic acid was added to each well and was left at room temperature for 15 minutes. The wells were mixed by pipetting and the solution was transferred to a clean 96-well plate and read at OD595.
# [5] = target: T2, AgrA_C from S. epidermidis / P3 DNA (Staphylococcus epidermidis, UniProt Q5HMY2); assay: Electrophoretic mobility shift assay of AgrA_C from S. epidermidis with P3 DNA; type: binding; conditions: 1 nM P3 DNA, 1 μM AgrA_C, increasing F19, 1% DMSO
# T2 sequence (Q5HMY2 143-238): T1 sequence (P0A0I7 143-238) with S48A, D52E, V63I, K83G, H85N, Y87F
# Method: FIG. 8 illustrates Electrophoretic mobility shift assay of AgrA_C from S. epidermidis as a function of F19 concentration. […] P3 DNA was radiolabeled with 32P. The concentrations of P3 DNA and AgrA_C were 1 nM and 1 μM, respectively. F19 was titrated in at increasing concentrations while maintaining a constant concentration of 1% DMSO.
# [6] = system: MRSA knockout strain (Lac Δagr); type: cell-based, Staphylococcus aureus; conditions: data not shown
# [7] = system: Strepococcus pneumonia NR13395; assay: Host cell damage assay (LDH leakage), Streptococcus pneumoniae; type: cell-based; conditions: THP-1 human monocytes
# Method: Damage to host cells was measured by leakage of lactate dehydrogenase (LDH) with the CytoTox 96 Non-Radioactive Cytotoxicity LDH Assay Promega Kits G178 and G1782 according to manufacturer's instructions.
# […] The bacteria were cultured at 37° C., in a shaking incubator for 6 h at which time 20 μL of bacterial culture was added to 5×10^4 THP-1 monocytes or J774.2 macrophages in 100 μL of cell media (DMEM for J774.2 cells and RPMI for THP-1 cells) in 96 well plates. Bacteria and macrophage/monocytes were incubated together for 40 min at 37° C. Plates were then spun at 250 g for 4 min and 50 μL of the supernatant was removed to a new 96 well plate. 50 μL of substrate mix+assay buffer were added and incubated at room temperature for 10-30 min depending upon the rate of product formation and stopped by addition of 50 μL stop solution. The colorometric products were read at 490 nm on a Victor 3 plate reader. The data presented are from experiments performed in triplicate.
# Gram-positive pathogens compromise host cell defense factors by puncturing membranes of immune system cells. To examine F19 efficacy in preventing host cell damage by various pathogens cell lysis assays were carried out by measuring leakage of lactate dehydrogenase (LDH) from cells. F19 indeed inhibits pathogen-mediated lysis of human THP-1 monocytes and mouse macrophage cell line J7774.2 by a series of Gram-positive pathogens, including MRSA, MRSE, Streptococcus pyogenes, Streptococcus pneumoniae and Bacillus cereus in a dose dependent manner (Table 2 for MRSA, Table 4 for other pathogens).
# [8] = target: T3, AgrA_C I238A, V235A, V232A and double mutants (Staphylococcus aureus, UniProt P0A0I7, V235A); assay: Microscale thermophoresis binding to AgrA_C alanine mutants; conditions: data not shown
# T3 construct: made in house
# T3 sequence (P0A0I7 143-238 V235A): T1 sequence (P0A0I7 143-238) with V93A
# [9] = target: T4, AgrA_C I238A, V235A, V232A and double mutants (Staphylococcus aureus, UniProt P0A0I7, I238A); assay: as above; conditions: data not shown
# T4 construct: made in house
# T4 sequence (P0A0I7 143-238 I238A): T1 sequence (P0A0I7 143-238) with I96A
# [10] = target: T5, AgrA_C I238A, V235A, V232A and double mutants (Staphylococcus aureus, UniProt P0A0I7, V232A); assay: as above
# T5 construct: made in house
# T5 sequence (P0A0I7 143-238 V232A): T1 sequence (P0A0I7 143-238) with V90A
# [11] = target: T6, AgrA_C I238A, V235A, V232A and double mutants (Staphylococcus aureus, UniProt P0A0I7, I238A/V235A); assay: as above
# T6 construct: made in house
# T6 sequence (P0A0I7 143-238 V235A/I238A): T1 sequence (P0A0I7 143-238) with V93A, I96A
# MRSE Q-15 = assay: RT-qPCR of virulence gene transcription in MRSE; conditions: 50 μg/mL F19
structure (smiles),measurement,setting,value
CCCCCCc1cc(C(=O)COc2ccc(C(C)C)cc2)c(O)cc1O [4f-19],biofilm formation in Lac Δagr,[1],biofilm inhibition was also observed
same,pKd,[2],5.54 and 5.35
same,emergence of resistance/tolerance: hemolysis of rabbit blood over daily passages,MRSA USA300 [3],no increase in hemolysis; also recorded: No emergence of resistance
same,Biofilm (%),MRSA USA300 [4]; F19 1 μg/ml,78.8 ± 11.8%
same,Biofilm (%),MRSA USA300 [4]; F19 10 μg/ml,53.7 ± 7.9%
same,Biofilm (%),MRSA USA300 [4]; F19 50 μg/ml,20.6 ± 3.7%
same,formation of the protein-nucleic acid complex (EMSA),[5],prevent the formation of the protein—nucleic acid complex
same,synergy with antibiotics in Lac Δagr,[6],synergy is lost
same,% Damage (LDH Leakage),[7]; F19 1 μg/mL,89.3 ± 1.0%
same,% Damage (LDH Leakage),[7]; F19 5 μg/mL,68.3 ± 1.1%
same,% Damage (LDH Leakage),[7]; F19 10 μg/mL,45.5 ± 1.7%
same,% Damage (LDH Leakage),[7]; F19 20 μg/mL,37.1 ± 0.6%
same,% Damage (LDH Leakage),[7]; F19 50 μg/mL,37.7 ± 0.7%
same,reduction of affinity by V235A mutant,[8],5 fold
same,reduction of affinity by I238A mutant,[9],14 fold
same,affinity to V232A mutant,[10],no loss of affinity
same,binding to the I238A/V235A double mutant,[11],very weak binding at the background level of the instrument
same,inhibition of AtlE transcription,MRSE Q-15,1910 fold
same,inhibition of psm-α transcription,MRSE Q-15,5043 fold
